Where two headings read alike, the source gives them in different places.
Columns and labels:
MiaPaCa-2 = assay: Proliferation assay (CellTiter Glo); type: cell-based; details: 96 hours; for EC50: Homo sapiens, MIA PaCa-2
HL60 = assay: Proliferation assay (CellTiter Glo); type: cell-based, human; details: 96 hours; for EC50: Homo sapiens, HL-60
Protocol: (§1) The dose range for most compounds was 4.6 nM-30 μM. The dose ranges for some compounds were adjusted downward to 0.46 nM-3 μM or 0.08 nM-0.5 μM or 0.03 nM-0.2 μM. […] The results are shown in Tables 3-6 for pancreatic cancer, lung cancer, colon/gastric cancer, and leukemia.

THP1 = assay: Proliferation assay (CellTiter Glo); type: cell-based, human; details: 96 hours; for EC50: Homo sapiens, THP-1
Protocol: as §1

H727 = assay: Proliferation assay (CellTiter Glo); type: cell-based; details: 96 hours; for EC50: Homo sapiens, NCI-H727
Protocol: as §1

Capan-1 = assay: Proliferation assay (CellTiter Glo); type: cell-based; details: 96 hours; for EC50: Homo sapiens
Protocol: as §1

AsPC-1 = assay: Proliferation assay (CellTiter Glo); type: cell-based; details: 96 hours; for EC50: Homo sapiens, ASPC1
Protocol: as §1

H358 = assay: Proliferation assay (CellTiter Glo); type: cell-based; details: HE58, 96 hours; for EC50: Homo sapiens, NCI-H358
Protocol: as §1

HCT116 = assay: Proliferation assay (CellTiter Glo); type: cell-based; details: 96 hours
Protocol: as §1

KP-4 = assay: Proliferation assay (CellTiter Glo); type: cell-based; details: 96 hours; for EC50: Homo sapiens
Protocol: as §1

LS180 = assay: Proliferation assay (CellTiter Glo); type: cell-based; details: 96 hours
Protocol: as §1

SW620 = assay: Proliferation assay (CellTiter Glo); type: cell-based; details: 96 hours
Protocol: as §1

Pan2.03 = assay: Proliferation assay (CellTiter Glo); type: cell-based; details: 96 hours
Protocol: as §1

A549 = assay: Proliferation assay (CellTiter Glo); type: cell-based; details: 96 hours; for EC50: Homo sapiens
Protocol: as §1

Pan2.13 = assay: Proliferation assay (CellTiter Glo); type: cell-based; details: 96 hours
Protocol: as §1

H441 = assay: Proliferation assay (CellTiter Glo); type: cell-based; details: 96 hours; for EC50: Homo sapiens, NCI-H441
Protocol: as §1

AGS = assay: Proliferation assay (CellTiter Glo); type: cell-based; details: 96 hours; for EC50: Homo sapiens
Protocol: as §1

CCRF-CEM = assay: Proliferation assay (CellTiter Glo); type: cell-based; details: 96 hours; for EC50: Homo sapiens
Protocol: as §1

phospho-PKC (pan) = assay: Western blot analysis of PKC signaling pathway elements in A549 cells; type: cell-based
Protocol: (§2) Cancer cells (2-8 million cells) were seeded in 10 cm dishes and grown overnight. For A549 lung cancer cell line, about 3 million cells were seeded. Cells were then treated with different drugs at concentrations described in Table 8 for a period of time up to 48 hours. Cells were lysed in 0.3-0.5 mL of RIPA buffer (Sigma) supplemented with protease inhibitors (Roche) and phosphatase inhibitors (Sigma). Lysates were assayed for protein concentration using BCA kit (Pierce). Normalized amount of lysates (20-30 μg protein/lane) were run on 4-12% NuPage gel (Life Technologies) and the proteins were transferred to the PVDF or nitrocellulose membrane using iBlot® Transfer Stack (Life Technologies). The membranes were probed with primary antibodies shown in Table 9 at 4° C. overnight after blocking with 1×TBST containing 5% non-fat milk. Antibodies from other vendors could also be used in Western blot analysis. After washing 5 times with 1×TBS containing 0.1% Tween20, the membranes were probed with 2nd antibodies Anti-mouse IgG Dylight 800 conjugate or Anti-rabbit IgG DyLight 680 conjugate (1:10000; Cell signaling or similar IR 2nd antibodies from different vendors) at room temperature for one hour. After washing 5 times, the membranes were scanned using Odyssey® Imaging System (Licor Biosciences).

[1] = system: leukemia inhibitory factor (LIF); assay: as above; type: cell-based
Protocol: as §2

## CC(=O)O[C@@]12C[C@@H](C)[C@@]3(O)[C@@H](C=C(CO)C[C@]4(O)C(=O)C(C)=C[C@@H]34)[C@@H]1C2(C)C [Compound K101A, 12-deoxyphorbol 13-acetate]
MiaPaCa-2; MiaPaCa-2 (K-RAS: G12C), absolute EC50, read-out: Ab EC50
  EC50: 300 nM
MiaPaCa-2; MiaPaCa-2, relative EC50, read-out: Re EC50
  EC50: 180 nM
MiaPaCa-2; MiaPaCa-2, % of top inhibition
  Top Inhibition %: 74.4%
HL60; HL60, % of top inhibition
  Top Inhibition %: 61.3%
HL60; HL60 (N-RAS: Q61L), absolute EC50, read-out: Ab EC50
  EC50: 470 nM
HL60; HL60, relative EC50, read-out: Re EC50
  EC50: 400 nM
THP1; THP1 (N-RAS: G12D), absolute EC50, read-out: Ab EC50
  EC50: 870 nM
THP1; THP1, relative EC50, read-out: Re EC50
  EC50: 300 nM
THP1; THP1, % of top inhibition
  Top Inhibition %: 51.8%
H727; H727, % of top inhibition
  Top Inhibition %: 48.3%
H727; H727 (K-RAS: G12V), absolute EC50, read-out: Ab EC50
  EC50: > 30000 nM
H727; H727, relative EC50, read-out: Re EC50
  EC50: 190 nM
Capan-1; Capan-1, % of top inhibition
  Top Inhibition %: 37.1%
Capan-1; Capan-1 (K-RAS: G12V), absolute EC50, read-out: Ab EC50
  EC50: > 30000 nM
Capan-1; Capan-1, relative EC50, read-out: Re EC50
  EC50: 310 nM
AsPC-1; AsPC-1, % of top inhibition
  Top Inhibition %: 32.4%
AsPC-1; AsPC-1 (K-RAS: G12D), absolute EC50, read-out: Ab EC50
  EC50: > 30000 nM
AsPC-1; AsPC-1, relative EC50, read-out: Re EC50
  EC50: 270 nM
H358; % of top inhibition
  Top Inhibition %: 56.4%
H358; absolute EC50, read-out: Ab EC50
  EC50: 4900 nM
H358; relative EC50, read-out: Re EC50
  EC50: 160 nM
HCT116; HCT116, % of top inhibition
  Top Inhibition %: 17.4%
HCT116; Homo sapiens, HCT-116, HCT116 (K-RAS: G13D), absolute EC50, read-out: Ab EC50
  EC50: > 30000 nM
KP-4; KP-4 (K-RAS: G12C), absolute EC50, read-out: Ab EC50
  EC50: 400 nM
KP-4; KP-4, relative EC50, read-out: Re EC50
  EC50: 190 nM
KP-4; KP-4, % of top inhibition
  Top Inhibition %: 63.3%
LS180; Homo sapiens, LS180 (K-RAS: G12D), absolute EC50, read-out: Ab EC50
  EC50: > 30000 nM
LS180; LS180, % of top inhibition
  Top Inhibition %: 4.4%
SW620; Homo sapiens, SW-620, SW620 (K-RAS: G12V), absolute EC50, read-out: Ab EC50
  EC50: > 30000 nM
SW620; SW620, % of top inhibition
  Top Inhibition %: 0.0%
Pan2.03; Pan2.03 (K-RAS: G12D), absolute EC50, read-out: Ab EC50
  EC50: > 30000 nM
Pan2.03; Pan2.03, % of top inhibition
  Top Inhibition %: 27.0%
Pan2.03; Pan2.03, relative EC50, read-out: Re EC50
  EC50: 120 nM
A549; A549, % of top inhibition
  Top Inhibition %: 76.0%
A549; A549 (K-RAS: G12S), absolute EC50, read-out: Ab EC50
  EC50: 490 nM
A549; A549, relative EC50, read-out: Re EC50
  EC50: 270 nM
Pan2.13; Pan2.13 (K-RAS: Q61H), absolute EC50, read-out: Ab EC50
  EC50: > 30000 nM
Pan2.13; Pan2.13, % of top inhibition
  Top Inhibition %: 43.4%
Pan2.13; Pan2.13, relative EC50, read-out: Re EC50
  EC50: 17 nM
H441; H441, % of top inhibition
  Top Inhibition %: 42.1%
H441; H441 (K-RAS: G12V), absolute EC50, read-out: Ab EC50
  EC50: > 30000 nM
H441; H441, relative EC50, read-out: Re EC50
  EC50: 320 nM
AGS; AGS, % of top inhibition
  Top Inhibition %: 21.7%
AGS; AGS (gastric, K-RAS: G12D), absolute EC50, read-out: Ab EC50
  EC50: > 30000 nM
AGS; AGS, relative EC50, read-out: Re EC50
  EC50: 490 nM
CCRF-CEM; CCRF-CEM, % of top inhibition
  Top Inhibition %: 35.9%
CCRF-CEM; CCRF-CEM (K-RAS: G12D), absolute EC50, read-out: Ab EC50
  EC50: > 30000 nM
CCRF-CEM; CCRF-CEM, relative EC50, read-out: Re EC50
  EC50: 51 nM
phospho-PKC (pan); 0.5 μM
  phospho-PKC (pan) level: without affecting
phospho-PKC (pan); 48 hours, K103, K102 at 0.5 μM, K101A at […]
  phospho-PKC (pan) levels: reduction
[1]; 0.5 μM
  LIF protein level: lowered
[1]; Western blot, concentrations of Table 8 (K101A 0.1, 0.5, […]; K101E […]; K102 0.1, 0.5 μM; K103 0.01 μM; Ref1 1 μM; Ref2 0.01 μM)
  protein levels of the leukemia inhibitory factor (LIF): dose-dependent reduction
